Test system: plants
Assay: Test D pre-emergence, other plants of Tables D1 and D3
Type: in vivo
Conditions: for ABUTH damage to plant (100=total damage; 0=no damage) / AMARE damage to plant (100=total damage; 0=no damage) / DIGSA damage to plant (100=total damage; 0=no damage) / ECHCG damage to plant (100=total damage; 0=no damage) / ORYSA damage to plant (100=total damage; 0=no damage) / PANMI damage to plant (100=total damage; 0=no damage) / SETFA damage to plant (100=total damage; 0=no damage): preemergent
Method: A formulation containing 50 g/L of the test chemical was prepared by dissolving the active ingredient in a mixture of organic solvents and emulsifier, details of which are provided in the table. This formulation was then mixed with a small, variable amount of acetone to aid dissolution, before addition of a 0.2% v/v aqueous solution of an adjuvant, as the aqueous diluent, to form an aqueous spray solution which contains a predetermined concentration of the active ingredient.
This aqueous spray solution was then sprayed onto plants including maize and wheat that had been seed treated with a herbicide safener, after one day's cultivation (for pre-emergence) or after about 12 days' cultivation (for post-emergence). The plants were grown from seeds sown in standard soil, placed in a glasshouse under controlled conditions (at 24/18° C. or 20/16° C., day/night; 16 h light; 65% humidity). After spray application the plants were then grown in a glasshouse under the same conditions and watered twice daily. After 15 d for post-emergence and 20 DAA for pre-emergence the test was evaluated (100=total damage to plant; 0=no damage to plant).

[1] = pre-emergence, rate 15, 20 DAA, 100=total damage, 0=no damage
[2] = pre-emergence, rate 30, 20 DAA, 100=total damage, 0=no damage
[3] = pre-emergence, rate 60, 20 DAA, 100=total damage, 0=no damage
[4] = pre-emergence, rate 130, 20 DAA, 100=total damage, 0=no damage
[5] = pre-emergence, rate 250, 20 DAA, 100=total damage, 0=no damage
[6] = pre-emergence, rate 500, 20 DAA, 100=total damage, 0=no damage

**Q.** Which VERPE damage rating (VERPE, Rates 500, pre-emergence, 20 DAA, 100=total damage, 0=no damage) does the source give for CN1CC(c2cc(C(F)(F)F)n(C)n2)C(C(=O)Nc2ccc(F)cc2C(C)(F)F)C1=O (racemic) [Compound 26] here?
**A.** The VERPE damage rating was 80.

**Q.** What about the “damage to plant, ALOMY” value [1] of the same molecule?
**A.** The value was 0.

**Q.** What about the “damage to plant, AVEFA” value [1] of the same molecule?
**A.** Its value is 0.

**Q.** And the “damage to plant, BEAVA” value [1]?
**A.** Its value is 0.

**Q.** And the “damage to plant, BROTE” value [1]?
**A.** Its value is 0.

**Q.** What about the “damage to plant, BRSNN” value [1] of the same molecule?
**A.** The value was 0.

**Q.** What about the “damage to plant, HORVW” value [1] of the same molecule?
**A.** The value was 0.

**Q.** What about the “damage to plant, SINAR” value [1] of the same molecule?
**A.** Its value is 0.

**Q.** And the “damage to plant, ALOMY” value [2]?
**A.** Its value is 0.

**Q.** What about the “damage to plant, AVEFA” value [2] of the same molecule?
**A.** Its value is 0.

**Q.** What about the “damage to plant, BEAVA” value [2] of the same molecule?
**A.** The value was 0.

**Q.** And the “damage to plant, BROTE” value [2]?
**A.** The value was 0.

**Q.** What about the “damage to plant, BRSNN” value [2] of the same molecule?
**A.** Its value is 0.

**Q.** And the “damage to plant, HORVW” value [2]?
**A.** The value was 0.

**Q.** And the “damage to plant, SINAR” value [2]?
**A.** The value was 0.

**Q.** And the “damage to plant, ALOMY” value [3]?
**A.** The value was 0.

**Q.** What about the “damage to plant, AVEFA” value [3] of the same molecule?
**A.** Its value is 0.

**Q.** What about the “damage to plant, BEAVA” value [3] of the same molecule?
**A.** The value was 0.

**Q.** And the “damage to plant, BROTE” value [3]?
**A.** Its value is 0.

**Q.** What about the “damage to plant, BRSNN” value [3] of the same molecule?
**A.** The value was 0.

**Q.** And the “damage to plant, HORVW” value [3]?
**A.** The value was 0.

**Q.** What about the “damage to plant, SINAR” value [3] of the same molecule?
**A.** The value was 0.

**Q.** And the “damage to plant, ALOMY” value [4]?
**A.** Its value is 10.

**Q.** What about the “damage to plant, AVEFA” value [4] of the same molecule?
**A.** The value was 10.

**Q.** And the “damage to plant, BEAVA” value [4]?
**A.** The value was 0.

**Q.** What about the “damage to plant, BROTE” value [4] of the same molecule?
**A.** Its value is 0.

**Q.** And the “damage to plant, BRSNN” value [4]?
**A.** Its value is 0.

**Q.** What about the “damage to plant, HORVW” value [4] of the same molecule?
**A.** Its value is 10.

**Q.** And the “damage to plant, SINAR” value [4]?
**A.** The value was 0.

**Q.** What about the “damage to plant, ALOMY” value [5] of the same molecule?
**A.** Its value is 70.

**Q.** And the “damage to plant, AVEFA” value [5]?
**A.** Its value is 50.

**Q.** What about the “damage to plant, BEAVA” value [5] of the same molecule?
**A.** Its value is 0.

**Q.** What about the “damage to plant, BRSNN” value [5] of the same molecule?
**A.** The value was 0.

**Q.** And the “damage to plant, HORVW” value [5]?
**A.** Its value is 40.

**Q.** And the “damage to plant, SINAR” value [5]?
**A.** The value was 0.

**Q.** What about the “damage to plant, ALOMY” value [6] of the same molecule?
**A.** Its value is 70.

**Q.** And the “damage to plant, AVEFA” value [6]?
**A.** The value was 90.

**Q.** And the “damage to plant, BEAVA” value [6]?
**A.** The value was 0.

**Q.** And the “damage to plant, BROTE” value [6]?
**A.** Its value is 10.

**Q.** What about the “damage to plant, BRSNN” value [6] of the same molecule?
**A.** Its value is 10.

**Q.** What about the “damage to plant, HORVW” value [6] of the same molecule?
**A.** The value was 30.

**Q.** What about the “damage to plant, SINAR” value [6] of the same molecule?
**A.** Its value is 0.

**Q.** What about the “ABUTH damage to plant (100=total damage; 0=no damage)” value (Rates 15, 20 DAA) of the same molecule?
**A.** Its value is 0.

**Q.** What about the “AMARE damage to plant (100=total damage; 0=no damage)” value (Rates 15, 20 DAA) of the same molecule?
**A.** The value was 0.

**Q.** And the “DIGSA damage to plant (100=total damage; 0=no damage)” value (Rates 15, 20 DAA)?
**A.** Its value is 20.

**Q.** What about the “ECHCG damage to plant (100=total damage; 0=no damage)” value (Rates 15, 20 DAA) of the same molecule?
**A.** Its value is 0.

**Q.** What about the “ORYSA damage to plant (100=total damage; 0=no damage)” value (Rates 15, 20 DAA) of the same molecule?
**A.** Its value is 0.

**Q.** What about the “PANMI damage to plant (100=total damage; 0=no damage)” value (Rates 15, 20 DAA) of the same molecule?
**A.** Its value is 0.

**Q.** And the “SETFA damage to plant (100=total damage; 0=no damage)” value (Rates 15, 20 DAA)?
**A.** The value was 0.

**Q.** And the “ABUTH damage to plant (100=total damage; 0=no damage)” value (Rates 30, 20 DAA)?
**A.** The value was 0.

**Q.** And the “AMARE damage to plant (100=total damage; 0=no damage)” value (Rates 30, 20 DAA)?
**A.** Its value is 0.

**Q.** And the “DIGSA damage to plant (100=total damage; 0=no damage)” value (Rates 30, 20 DAA)?
**A.** The value was 90.

**Q.** What about the “ECHCG damage to plant (100=total damage; 0=no damage)” value (Rates 30, 20 DAA) of the same molecule?
**A.** The value was 10.

**Q.** What about the “ORYSA damage to plant (100=total damage; 0=no damage)” value (Rates 30, 20 DAA) of the same molecule?
**A.** Its value is 0.

**Q.** What about the “PANMI damage to plant (100=total damage; 0=no damage)” value (Rates 30, 20 DAA) of the same molecule?
**A.** The value was 0.

**Q.** And the “SETFA damage to plant (100=total damage; 0=no damage)” value (Rates 30, 20 DAA)?
**A.** The value was 20.

**Q.** And the “ABUTH damage to plant (100=total damage; 0=no damage)” value (Rates 60, 20 DAA)?
**A.** The value was 0.

**Q.** What about the “AMARE damage to plant (100=total damage; 0=no damage)” value (Rates 60, 20 DAA) of the same molecule?
**A.** Its value is 0.

**Q.** And the “DIGSA damage to plant (100=total damage; 0=no damage)” value (Rates 60, 20 DAA)?
**A.** The value was 90.

**Q.** What about the “ECHCG damage to plant (100=total damage; 0=no damage)” value (Rates 60, 20 DAA) of the same molecule?
**A.** The value was 30.

**Q.** And the “ORYSA damage to plant (100=total damage; 0=no damage)” value (Rates 60, 20 DAA)?
**A.** Its value is 0.

**Q.** What about the “PANMI damage to plant (100=total damage; 0=no damage)” value (Rates 60, 20 DAA) of the same molecule?
**A.** The value was 0.

**Q.** And the “SETFA damage to plant (100=total damage; 0=no damage)” value (Rates 60, 20 DAA)?
**A.** Its value is 70.

**Q.** What about the “ABUTH damage to plant (100=total damage; 0=no damage)” value (Rates 130, 20 DAA) of the same molecule?
**A.** Its value is 0.

**Q.** And the “AMARE damage to plant (100=total damage; 0=no damage)” value (Rates 130, 20 DAA)?
**A.** The value was 0.

**Q.** And the “DIGSA damage to plant (100=total damage; 0=no damage)” value (Rates 130, 20 DAA)?
**A.** Its value is 90.

**Q.** What about the “ECHCG damage to plant (100=total damage; 0=no damage)” value (Rates 130, 20 DAA) of the same molecule?
**A.** The value was 20.

**Q.** And the “ORYSA damage to plant (100=total damage; 0=no damage)” value (Rates 130, 20 DAA)?
**A.** Its value is 0.

**Q.** And the “PANMI damage to plant (100=total damage; 0=no damage)” value (Rates 130, 20 DAA)?
**A.** Its value is 0.

**Q.** And the “SETFA damage to plant (100=total damage; 0=no damage)” value (Rates 130, 20 DAA)?
**A.** Its value is 90.

**Q.** And the “ABUTH damage to plant (100=total damage; 0=no damage)” value (Rates 250, 20 DAA)?
**A.** The value was 0.

**Q.** And the “AMARE damage to plant (100=total damage; 0=no damage)” value (Rates 250, 20 DAA)?
**A.** Its value is 70.

**Q.** And the “DIGSA damage to plant (100=total damage; 0=no damage)” value (Rates 250, 20 DAA)?
**A.** The value was 90.

**Q.** And the “ECHCG damage to plant (100=total damage; 0=no damage)” value (Rates 250, 20 DAA)?
**A.** The value was 60.

**Q.** What about the “ORYSA damage to plant (100=total damage; 0=no damage)” value (Rates 250, 20 DAA) of the same molecule?
**A.** The value was 0.

**Q.** And the “PANMI damage to plant (100=total damage; 0=no damage)” value (Rates 250, 20 DAA)?
**A.** Its value is 0.

**Q.** What about the “SETFA damage to plant (100=total damage; 0=no damage)” value (Rates 250, 20 DAA) of the same molecule?
**A.** The value was 90.

**Q.** And the “ABUTH damage to plant (100=total damage; 0=no damage)” value (Rates 500, 20 DAA)?
**A.** Its value is 0.

**Q.** And the “AMARE damage to plant (100=total damage; 0=no damage)” value (Rates 500, 20 DAA)?
**A.** Its value is 60.

**Q.** What about the “DIGSA damage to plant (100=total damage; 0=no damage)” value (Rates 500, 20 DAA) of the same molecule?
**A.** Its value is 90.

**Q.** What about the “ECHCG damage to plant (100=total damage; 0=no damage)” value (Rates 500, 20 DAA) of the same molecule?
**A.** The value was 90.

**Q.** And the “ORYSA damage to plant (100=total damage; 0=no damage)” value (Rates 500, 20 DAA)?
**A.** Its value is 0.

**Q.** What about the “PANMI damage to plant (100=total damage; 0=no damage)” value (Rates 500, 20 DAA) of the same molecule?
**A.** Its value is 0.

**Q.** And the “SETFA damage to plant (100=total damage; 0=no damage)” value (Rates 500, 20 DAA)?
**A.** Its value is 90.

Reference: patent US20220281848A1, “PYRAZOLE-SUBSTITUTED PYRROLIDINONES AS HERBICIDES” (FMC Corporation, priority 2019, published 2022)
